Data: patent US20060069132A1, “Azolecarboxamide herbicides” (priority 2004, published 2006)
Where two headings read alike, the source gives them in different places.

Key:
lambsquarters = assay: Test B pre-/postemergence herbicide test; assay type: in vivo, Chenopodium album; settings: Chenopodium album, 336 h; for pest or weed control at 125 g/ha: 125 g ai/ha
In short: (§1)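 Herbicidal effect was judged by eye on a 0–100 scale after plants stood 13 to 15 days in the greenhouse following pre- or postemergence treatment with surfactant-containing formulations.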

giant foxtail = assay: Test B pre-/postemergence herbicide test; assay type: in vivo, Setaria faberi; settings: Setaria faberi, 336 h; for pest or weed control at 500 g/ha: 500 g ai/ha; for pest or weed control at 125 g/ha: 125 g ai/ha
In short: as §1

Surinam grass = assay: Test B pre-/postemergence herbicide test; assay type: in vivo, Urochloa decumbens; settings: Urochloa decumbens; for pest or weed control at 125 g/ha: 125 g ai/ha
In short: as §1

[1] = tested on: small flower umbrella sedge; assay: Test B flooded paddy test; assay type: in vivo, Cyperus difformis; settings: Cyperus difformis, 336 h, 1000 g ai/ha, visual rating, scale 0 to 100 (0 no effect, 100 complete control), 13 to 15 days, read-out: Sedge, Umbrella plant response rating
In short: (§2)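 Plants grow to 1- to 4-leaf stage (2–18 cm) for postemergence spraying, or to 2-leaf stage for the paddy test. Formulated compound is applied. Greenhouse holding lasts 13–15 days. Response is scored visually relative to controls, 0 no effect to 100 complete control; a dash means no result.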

wild oat = assay: Test B postemergence herbicide test; assay type: in vivo, Avena fatua; settings: scale 0 (no effect) to 100 (complete control)
In short: (§3)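 Formulated test chemicals went onto postemergence plants measuring 2 to 18 cm, at one to four leaves. For the paddy assay, species had reached two leaves. Scoring took place 13–15 days later by eye, relative to untreated plants, using 0 for no effect up to 100 for full control.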

velvetleaf = assay: Test B pre-/postemergence herbicide test; assay type: in vivo, Abutilon theophrasti; settings: Abutilon theophrasti, 336 h; for pest or weed control at 125 g/ha: 125 g ai/ha
In short: as §1

cocklebur = assay: Test B pre-/postemergence herbicide test; assay type: in vivo, Xanthium strumarium; settings: Xanthium strumarium; for pest or weed control at 500 g/ha: 500 g ai/ha; for pest or weed control at 125 g/ha: 125 g ai/ha
In short: (§4)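 Species tested were Echinochloa crus-galli, Ipomoea coccinea, Xanthium strumarium and Oryza sativa, treated both before emergence and at the 1- to 4-leaf stage; rice and barnyardgrass were also tested under flooding at 2 leaves. Greenhouse incubation lasted 13–15 days before visual 0–100 scoring.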

large crabgrass = assay: Test B pre-/postemergence herbicide test; assay type: in vivo, Digitaria sanguinalis; settings: Digitaria sanguinalis; for pest or weed control at 500 g/ha: 500 g ai/ha; for pest or weed control at 125 g/ha: 125 g ai/ha
In short: as §1

barnyardgrass = assay: Test B pre-/postemergence herbicide test; assay type: in vivo, Echinochloa crus-galli; settings: Echinochloa crus-galli; for pest or weed control at 500 g/ha: 500 g ai/ha; for pest or weed control at 125 g/ha: 125 g ai/ha
In short: as §4

morningglory = assay: Test B pre-/postemergence herbicide test; assay type: in vivo, Ipomoea coccinea; settings: Ipomoea, 336 h; for pest or weed control at 125 g/ha: 125 g ai/ha
In short: as §4

wheat = assay: Test B postemergence herbicide test; assay type: in vivo, Triticum aestivum; settings: scale 0 (no effect) to 100 (complete control)
In short: as §3

pigweed = assay: Test B pre-/postemergence herbicide test; assay type: in vivo, Amaranthus retroflexus; settings: Amaranthus retroflexus, 336 h; for pest or weed control at 125 g/ha: 125 g ai/ha
In short: as §1

corn = assay: Test B pre-/postemergence herbicide test; assay type: in vivo, Zea mays; settings: Zea mays
In short: as §1

blackgrass = assay: Test B postemergence herbicide test; assay type: in vivo, Alopecurus myosuroides; settings: scale 0 (no effect) to 100 (complete control)
In short: as §2

[2] = Postemergence, 500 g ai/ha, visual rating after 13 to 15 days

CCn1nc(C(C)(C)C)cc1C(=O)Nc1cccc(C(=O)OCCF)c1 [Compound 82, 2-fluoroethyl 3-[[[3-(1,1-dimethylethyl)-1-ethyl-1H-pyrazol-5-yl]-carbonyl]amino]benzoate]
pest or weed control at 500 g/ha (lambsquarters; post-emergence, Postemergence, 500 g ai/ha, visual rating after 13 to 15 days, scale 0 (no effect) to 100 (complete control), read-out: Plant response rating, Lambsquarters): 50%
pest or weed control at 125 g/ha (lambsquarters; post-emergence, postemergence, visual rating, scale 0 (no effect) to 100 (complete control), read-out: Lambsquarters plant response rating): 20%
pest or weed control at 125 g/ha (lambsquarters; pre-emergence, preemergence, 0 to 100 scale, 0 is no effect, 100 is complete control, read-out: Plant response rating, Lambsquarters): 0%
pest or weed control at 500 g/ha (giant foxtail; post-emergence, Postemergence, visual rating after 13 to 15 days, scale 0 (no effect) to 100 (complete control), read-out: Plant response rating, Foxtail, Giant): 10%
pest or weed control at 125 g/ha (giant foxtail; post-emergence, postemergence, visual rating, scale 0 (no effect) to 100 (complete control), read-out: Foxtail, Giant plant response rating): 10%
pest or weed control at 500 g/ha (giant foxtail; pre-emergence, Preemergence, scale 0 to 100, read-out: Foxtail, Giant plant response rating): 0%
pest or weed control at 125 g/ha (giant foxtail; pre-emergence, preemergence, 0 to 100 scale, 0 is no effect, 100 is complete control, read-out: Plant response rating, Foxtail, Giant): 0%
pest or weed control at 500 g/ha (Surinam grass; post-emergence, Postemergence, 500 g ai/ha, visual rating after 13 to 15 days, scale 0 (no effect) to 100 (complete control), read-out: Plant response rating, Surinam Grass): 60%
pest or weed control at 125 g/ha (Surinam grass; post-emergence, postemergence, visual rating, scale 0 (no effect) to 100 (complete control), read-out: Surinam Grass plant response rating): 30%
pest or weed control at 125 g/ha (Surinam grass; pre-emergence, preemergence, 0 to 100 scale, 0 is no effect, 100 is complete control, read-out: Plant response rating, Surinam Grass): 0%
pest or weed control at 1000 g/ha [1]: 40%
pest or weed control at 125 g/ha (wild oat; Avena fatua, post-emergence, 336 h, postemergence, 125 g ai/ha, visual rating, read-out: Oat, Wild plant response rating): 10%
Plant response rating, Oat, Wild (wild oat; [2]): 30
pest or weed control at 500 g/ha (velvetleaf; post-emergence, Postemergence, 500 g ai/ha, visual rating after 13 to 15 days, scale 0 (no effect) to 100 (complete control), read-out: Plant response rating, Velvetleaf): 90%
pest or weed control at 125 g/ha (velvetleaf; post-emergence, postemergence, visual rating, scale 0 (no effect) to 100 (complete control), read-out: Velvetleaf plant response rating): 80%
pest or weed control at 125 g/ha (velvetleaf; pre-emergence, preemergence, 0 to 100 scale, 0 is no effect, 100 is complete control, read-out: Plant response rating, Velvetleaf): 0%
pest or weed control at 500 g/ha (cocklebur; post-emergence, Postemergence, visual rating after 13 to 15 days, scale 0 (no effect) to 100 (complete control), read-out: Plant response rating, Cocklebur): 100%
pest or weed control at 125 g/ha (cocklebur; post-emergence, postemergence, visual rating, scale 0 (no effect) to 100 (complete control), read-out: Cocklebur plant response rating): 80%
pest or weed control at 500 g/ha (cocklebur; pre-emergence, Preemergence, scale 0 to 100, read-out: Cocklebur plant response rating): 0%
pest or weed control at 125 g/ha (cocklebur; pre-emergence, preemergence, 0 to 100 scale, 0 is no effect, 100 is complete control, read-out: Plant response rating, Cocklebur): 0%
pest or weed control at 500 g/ha (large crabgrass; post-emergence, Postemergence, visual rating after 13 to 15 days, scale 0 (no effect) to 100 (complete control), read-out: Plant response rating, Crabgrass, Large): 20%
pest or weed control at 125 g/ha (large crabgrass; post-emergence, postemergence, visual rating, scale 0 (no effect) to 100 (complete control), read-out: Crabgrass, Large plant response rating): 10%
pest or weed control at 500 g/ha (large crabgrass; pre-emergence, Preemergence, scale 0 to 100, read-out: Crabgrass, Large plant response rating): 0%
pest or weed control at 125 g/ha (large crabgrass; pre-emergence, preemergence, 0 to 100 scale, 0 is no effect, 100 is complete control, read-out: Plant response rating, Crabgrass, Large): 0%
pest or weed control at 500 g/ha (barnyardgrass; post-emergence, Postemergence, visual rating after 13 to 15 days, scale 0 (no effect) to 100 (complete control), read-out: Plant response rating, Barnyardgrass): 20%
pest or weed control at 125 g/ha (barnyardgrass; post-emergence, postemergence, visual rating, scale 0 (no effect) to 100 (complete control), read-out: Barnyardgrass plant response rating): 10%
pest or weed control at 500 g/ha (barnyardgrass; pre-emergence, Preemergence, scale 0 to 100, read-out: Barnyardgrass plant response rating): 0%
pest or weed control at 125 g/ha (barnyardgrass; pre-emergence, preemergence, 0 to 100 scale, 0 is no effect, 100 is complete control, read-out: Plant response rating, Barnyardgrass): 0%
pest or weed control at 500 g/ha (morningglory; post-emergence, Postemergence, 500 g ai/ha, visual rating after 13 to 15 days, scale 0 (no effect) to 100 (complete control), read-out: Plant response rating, Morningglory): 70%
pest or weed control at 125 g/ha (morningglory; post-emergence, postemergence, visual rating, scale 0 (no effect) to 100 (complete control), read-out: Morningglory plant response rating): 10%
pest or weed control at 125 g/ha (morningglory; pre-emergence, preemergence, 0 to 100 scale, 0 is no effect, 100 is complete control, read-out: Plant response rating, Morningglory): 0%
Plant response rating, Wheat (wheat; [2]): 20
plant injury at 125 g/ha (wheat; Triticum aestivum, post-emergence, 336 h, postemergence, 125 g ai/ha, visual rating, read-out: Wheat plant response rating): 20%
pest or weed control at 500 g/ha (pigweed; post-emergence, Postemergence, 500 g ai/ha, visual rating after 13 to 15 days, scale 0 (no effect) to 100 (complete control), read-out: Plant response rating, Pigweed): 100%
pest or weed control at 125 g/ha (pigweed; post-emergence, postemergence, visual rating, scale 0 (no effect) to 100 (complete control), read-out: Pigweed plant response rating): 80%
pest or weed control at 125 g/ha (pigweed; pre-emergence, preemergence, 0 to 100 scale, 0 is no effect, 100 is complete control, read-out: Plant response rating, Pigweed): 0%
Corn plant response rating (crop injury, 0 = no effect, 100 = complete kill) at 500 g/ha (corn; post-emergence, Postemergence, 500 g ai/ha, visual rating after 13 to 15 days, scale 0 (no effect) to 100 (complete control)): 30%
plant injury at 125 g/ha (corn; post-emergence, postemergence, 125 g ai/ha, visual rating, scale 0 (no effect) to 100 (complete control), read-out: Corn plant response rating): 20%
plant injury at 500 g/ha (corn; pre-emergence, Preemergence, 500 g ai/ha, scale 0 to 100, read-out: Corn plant response rating): 0%
Corn plant response rating (crop injury, 0 = no effect, 100 = complete kill) at 125 g/ha (corn; pre-emergence, preemergence, 125 g ai/ha, 0 to 100 scale, 0 is no effect, 100 is complete control): 0%
pest or weed control at 125 g/ha (blackgrass; Alopecurus myosuroides, post-emergence, 336 h, postemergence, 125 g ai/ha, visual rating, read-out: Blackgrass plant response rating): 0%
Plant response rating, Blackgrass (blackgrass; [2]): 10
